26 compounds from patent US8859541B2, “6-alkynylpyridines” (Boehringer Ingelheim International GmbH, priority 2012, dated 2014) can be followed below.

In one experiment the target is T1, cIAP1 BIR3 (Homo sapiens, UniProt Q13490).
T1 construct: covering amino acids 256 to 363; cIAP1 BIR3; made in house; host or cells: E. coli
Put plainly: cIAP1 BIR3 binding assay (DELFIA), displacement of SMAC peptide. The settings on record: GST-fusion BIR3 domain (aa 256 to 363) 10 nM, SMAC peptide 10 nM; activity of the (S)-isomers. The protocol:
Biological Methods XIAP BIR3 and cIAP1 BIR3 Binding Assays (DELFIA)
Peptide […]-Lys(Biotin), representing the N-terminus of mature human SMAC (SMAC peptide), was used as interaction partner in the protein-peptide interaction assay.
BIR3 domains (10 nM) were incubated with SMAC peptide (10 nM) in Assay Buffer (50 mM Tris, 120 mM NaCl, 0.1% BSA, 1 mM DTT, 0.05% TritonX100) for one hour at room temperature in the presence of inhibitiory compounds. The assay mixture was transferred to a strepatvidin coated plate and incubated for one hour at room temperature to allow binding of the biotinylated peptide and associated BIR3 domains to the plate. After several washing steps Eu labeled anti-GST antibody (e.g. Perkin Elmer DELFIA Eu-N1-antiGST AD0250) was added to detect BIR3 domain-SMAC peptide interactions according to Perkin Elmer's instructions. […] Time resolved Europium fluoresecence was measured in a Wallac Victor using Standard assay settings.
DELFIA assay results were plotted against compound concentrations and Software GraphPad Prizm was used to calculate half maximal inhibitory concentrations (IC50 values).

The next experiment deals with T2, XIAP BIR3 (Homo sapiens, UniProt P98170).
T2 construct: covering amino acids 241 to 356; XIAP BIR3; made in house; host or cells: E. coli
Put plainly: XIAP BIR3 binding assay (DELFIA), displacement of SMAC peptide. The settings on record: GST-fusion BIR3 domain (aa 241 to 356) 10 nM, SMAC peptide 10 nM; activity of the (S)-isomers. The essentials: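 Each BIR3 domain (10 nM) incubated with biotinylated N-terminal SMAC peptide (10 nM) and compound for 1 h at room temp in Tris/NaCl buffer with BSA, DTT and Triton X-100. Captured on streptavidin plates; bound BIR3 detected by Eu-labelled anti-GST time-resolved fluorescence, giving IC50 values.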

T1 sequence (Q13490 256-363): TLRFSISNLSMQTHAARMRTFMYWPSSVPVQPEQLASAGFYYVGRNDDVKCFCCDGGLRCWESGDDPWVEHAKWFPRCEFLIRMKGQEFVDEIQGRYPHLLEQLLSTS
T2 sequence (P98170 241-356): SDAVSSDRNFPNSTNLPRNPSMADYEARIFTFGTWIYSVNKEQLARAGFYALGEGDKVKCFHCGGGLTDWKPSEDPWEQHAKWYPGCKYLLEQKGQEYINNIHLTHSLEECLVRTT

`CNC(C)C(=O)Nc1ccc(-c2c(C)nc3ccccn23)c(C#Cc2ccc3oc(=O)n(C)c3c2)n1` (stereo not shown) [Example 74, 2-(methylamino)-N-[5-(2-methylimidazo[1,2-a]pyridin-3-yl)-6-[2-(3-methyl-2-oxo-1,3-benzoxazol-5-yl)ethynyl]-pyridin-2-yl]propanamide]: the results for the IC50 at cIAP1 BIR3 and at XIAP BIR3 were 1 nM and 175 nM, respectively.
For `CNC(C)C(=O)Nc1ccc(-c2c(C)nc3cc(Cl)ccn23)c(C#Cc2ccc3ncccc3c2)n1` (stereo not shown) [Example 46, N-[5-(7-chloro-2-methyl-imidazo[1,2-a]pyridin-3-yl)-6-(2-quinolin-6-ylethynyl)pyridin-2-yl]-2-(methylamino)propan-amide], the results for the half-maximal inhibitory concentration (IC50) at cIAP1 BIR3 and on XIAP BIR3 were 1 nM and 145 nM, respectively.
Take `CNC(C)C(=O)Nc1ccc(-c2c(C)nc3ccccn23)c(C#Cc2ccc3cnn(C)c3c2)n1` (stereo not shown) [Example 49, 2-(methylamino)-N-[5-(2-methylimidazo[1,2-a]pyridin-3-yl)-6-[2-(1-methylindazol-6-yl)-ethynyl]pyridin-2-yl]propan-amide]: the IC50 at cIAP1 BIR3 is 1 nM; on XIAP BIR3, 107 nM.
The like results for `CC(N)C(=O)Nc1cccc(C#Cc2cccs2)n1` (stereo not shown) [Example 217, 2-amino-N-[6-(2-thiophen-2-ylethynyl)pyridin-2-yl]propanamide] were, in that order, 206 nM and 895 nM.
`CC(N)C(=O)Nc1cc2ccccc2c(C#Cc2cccs2)n1` (stereo not shown) [Example 208, 2-amino-N-[1-(2-thiophen-2-ylethynyl)isoquinolin-3-yl]-propanamide]: the concentration for half-maximal inhibition (IC50) on cIAP1 BIR3 was 255 nM; at XIAP BIR3 it was 467 nM.
In the case of `CC(N)C(=O)Nc1cccc(C#Cc2ccoc2)n1` (stereo not shown) [Example 240, 2-amino-N-[6-[2-(furan-3-yl)ethynyl]pyridin-2-yl]propanamide], the figures for the IC50 at cIAP1 BIR3 and on XIAP BIR3 were 1340 nM and 3020 nM, respectively.
Turning to `CNC(C)C(=O)Nc1ccc(-c2cnn3ccccc23)c(C#Cc2ccccc2)n1` (stereo not shown) [Example 138, 2-(methylamino)-N-[6-(2-phenyl-ethynyl)-5-pyrazolo[1,5-a]-pyridin-3-ylpyridin-2-yl]propan-amide], the IC50 is 12 nM on cIAP1 BIR3 and 55 nM on XIAP BIR3.
For the compound `CNC(C)C(=O)Nc1ccc(-c2c(C)nc3ccccn23)c(C#Cc2ccc(C#N)c(Cl)c2)n1` (stereo not shown) [Example 41, N-[6-[2-(3-chloro-4-cyanophenyl)ethynyl]-5-(2-methylimidazo[1,2-a]pyridin-3-yl)pyridin-2-yl]-2-(methyl-amino)propanamide], the IC50 on cIAP1 BIR3 was found to be 1 nM; on XIAP BIR3 it was 123 nM.
For `CNC(C)C(=O)Nc1ccc(-c2cncc(OC)c2)c(C#Cc2ccccc2)n1` (stereo not shown) [Example 121, N-[5-(5-methoxypyridin-3-yl)-6-(2-phenylethynyl)pyridin-2-yl]-2-(methylamino)propanamide], the IC50 at cIAP1 BIR3 is 31 nM; at XIAP BIR3 it was 97 nM.
`CC(N)C(=O)Nc1ccc(-c2cccc(C#N)c2)c(C#Cc2ccccc2)n1` (stereo not shown) [Example 113, 2-amino-N-[5-(3-cyanophenyl)-6-(2-phenylethynyl)pyridin-2-yl]-propanamide]: the IC50 on cIAP1 BIR3 stood at 67 nM; on XIAP BIR3, 228 nM.
As to `CNC(C)C(=O)Nc1ccc(-c2c(C)nc(N3CCCC3)nc2C)c(C#Cc2ccc3c(ccc(=O)n3C)c2)n1` (stereo not shown) [Example 79, N-[5-(4,6-dimethyl-2-pyrrolidin-1-ylpyrimidin-5-yl)-6-[2-(1-methyl-2-oxoquinolin-6-yl)-ethynyl]pyridin-2-yl]-2-(methyl-amino)propanamide], the IC50 is 1 nM at cIAP1 BIR3 and 2400 nM at XIAP BIR3.
Turning to `CNC(C)C(=O)Nc1ccc(-c2cscc2C#N)c(C#Cc2ccccc2)n1` (stereo not shown) [Example 145, N-[5-(4-cyanothiophen-3-yl)-6-(2-phenylethynyl)pyridin-2-yl]-2-(methylamino)propanamide], the values for the IC50 on cIAP1 BIR3 and at XIAP BIR3 were 94 nM and 317 nM, respectively.
As for `CNC(C)C(=O)Nc1ccc(-c2cncc(Cl)c2)c(C#Cc2ccccc2)n1` (stereo not shown) [Example 122, N-[5-(5-chloropyridin-3-yl)-6-(2-phenylethynyl)pyridin-2-yl]-2-(methylamino)propanamide], the IC50 was 23 nM at cIAP1 BIR3 and 148 nM on XIAP BIR3.
`CC(N)C(=O)Nc1cccc(C#Cc2cccc(C(=O)N3CCOCC3)c2)n1` (stereo not shown) [Example 213, 2-amino-N-[6-[2-[3-(morpholine-4-carbonyl)-phenyl]ethynyl]pyridin-2-yl]propanamide]: the IC50 turned out to be 2120 nM at cIAP1 BIR3 and 9950 nM on XIAP BIR3.
For `CNC(C)C(=O)Nc1ccc(-c2c(C)ncnc2C)c(C#Cc2ccc3cnccc3c2)n1` (stereo not shown) [Example 45, N-[5-(4,6-dimethylpyrimidin-5-yl)-6-(2-isoquinolin-6-yl-ethynyl)pyridin-2-yl]-2-(methyl-amino)propanamide], the results for the IC50 on cIAP1 BIR3 and on XIAP BIR3 were 2 nM and 431 nM, respectively.
`CNC(C)C(=O)Nc1ccc(-c2c(C)nc3ccccn23)c(C#Cc2ccc3c(c2)COC3)n1` (stereo not shown) [Example 53, N-[6-[2-(1,3-dihydro-2-benzofuran-5-yl)ethynyl]-5-(2-methylimidazo[1,2-a]pyridin-3-yl)pyridin-2-yl]-2-(methyl-amino)propanamide]: the IC50 at cIAP1 BIR3 amounted to 1 nM; at XIAP BIR3, 116 nM.
With `CNC(C)C(=O)Nc1ccc(-c2c(C)nc3ccccn23)c(C#Cc2cccc3ncccc23)n1` (stereo not shown) [Example 89, 2-(methylamino)-N-[5-(2-methylimidazo[1,2-a]pyridin-3-yl)-6-(2-quinolin-5-ylethynyl)-pyridin-2-yl]propanamide], the IC50 was determined as 2 nM on cIAP1 BIR3 and 92 nM at XIAP BIR3.
Regarding `CNC(C)C(=O)Nc1ccc(-c2c(C)nc3ccccn23)c(C#Cc2ccc3c(c2)CN(C)C3=O)n1` (stereo not shown) [Example 31, 2-(methylamino)-N-[5-(2-methylimidazo[1,2-a]pyridin-3-yl)-6-[2-(2-methyl-1-oxo-3H-isoindol-5-yl)ethynyl]pyridin-2-yl]propanamide], the figures for the IC50 on cIAP1 BIR3 and at XIAP BIR3 were 1 nM and 228 nM, respectively.
For `CC(N)C(=O)Nc1cc2ccccc2c(C#Cc2ccccn2)n1` (stereo not shown) [Example 206, 2-amino-N-[1-(2-pyridin-2-ylethynyl)isoquinolin-3-yl]-propanamide], the values for the IC50 at cIAP1 BIR3 and at XIAP BIR3 were 880 nM and 3620 nM, respectively.
On the same counts, the results for `CNC(C)C(=O)Nc1ccc(-c2c(C)nc3ccccn23)c(C#Cc2ccc(C(N)=O)cc2)n1` (stereo not shown) [Example 63, 4-[2-[6-[[2-(methylamino)-propanoyl]amino]-3-(2-methyl-imidazo[1,2-a]pyridin-3-yl)-pyridin-2-yl]ethynyl]benzamide] are 1 nM and 70 nM.
Regarding `CNC(C)C(=O)Nc1ccc(-c2nnc(Cl)c3ccccc23)c(C#Cc2ccccc2)n1` (stereo not shown) [Example 184, N-[5-(4-chlorophthalazin-1-yl)-6-(2-phenylethynyl)pyridin-2-yl]-2-(methylamino)propanamide], the IC50 at cIAP1 BIR3 came to 17 nM; at XIAP BIR3, 138 nM.
Regarding `CNC(C)C(=O)Nc1ccc(-c2c(C)nc3ccccn23)c(C#Cc2ccc(-c3cccnc3)cc2)n1` (stereo not shown) [Example 36, 2-(methylamino)-N-[5-(2-methylimidazo[1,2-a]pyridin-3-yl)-6-[2-(4-pyridin-3-ylphenyl)-ethynyl]pyridin-2-yl]propan-amide], the figures for the half-inhibitory concentration (IC50) at cIAP1 BIR3 and on XIAP BIR3 were 1 nM and 112 nM, respectively.
For `CNC(C)C(=O)Nc1ccc(-c2c(C)nc3ccccn23)c(C#Cc2ccc3nccn3c2)n1` (stereo not shown) [Example 48, N-[6-(2-imidazo[1,2-a]pyridin-6-ylethynyl)-5-(2-methyl-imidazo[1,2-a]pyridin-3-yl)-pyridin-2-yl]-2-(methylamino)-propanamide], the concentration for half-maximal inhibition (IC50) on cIAP1 BIR3 is 1 nM; on XIAP BIR3 it was 212 nM.
Regarding `CNC(C)C(=O)Nc1ccc(-c2c(C)nc3ccccn23)c(C#Cc2ccc(-n3cccn3)cc2)n1` (stereo not shown) [Example 90, 2-(methylamino)-N-[5-(2-methylimidazo[1,2-a]pyridin-3-yl)-6-[2-(4-pyrazol-1-ylphenyl)-ethynyl]pyridin-2-yl]propan-amide], the IC50 at cIAP1 BIR3 turned out to be 1 nM; on XIAP BIR3, 166 nM.
For `CNC(C)C(=O)Nc1ccc(-c2c(-c3ccncc3)nc3cc(C)ccn23)c(C#Cc2ccc3nc(C)ccc3c2)n1` (stereo not shown) [Example 64, 2-(methylamino)-N-[5-(7-methyl-2-pyridin-4-ylimidazo[1,2-a]pyridin-3-yl)-6-[2-(2-methylquinolin-6-yl)-ethynyl]pyridin-2-yl]propan-amide], the IC50 on cIAP1 BIR3 was 1 nM; at XIAP BIR3, 152 nM.
As for `CNC(C)C(=O)Nc1ccc(-c2c(C)nc(N3CCCC3)nc2C)c(C#Cc2ccc3ncccc3c2)n1` (stereo not shown) [Example 80, N-[5-(4,6-dimethyl-2-pyrrolidin-1-ylpyrimidin-5-yl)-6-(2-quinolin-6-ylethynyl)pyridin-2-yl]-2-(methylamino)propan-amide], the 50% inhibitory concentration (IC50) worked out at 1 nM at cIAP1 BIR3 and 1310 nM at XIAP BIR3.

In general, IC50 refers to the concentration that inhibits the measured activity by half. A low value points to higher potency.
